Peptide text beside a SMILES is read from it.
Tests used:
[1] = tested on: A875 cells; assay: Wound healing (migration), A875; format: cell-based; conditions: wound healing, 0, 5, 25 μM, 24 h or 48 h
Experimental: A375 GFP, A875 GFP, A375 PDPN^−/−, and A875 PDPN^+/+ cells were all seeded in 12-well plates at a density of 5 × 10^5 cells/well. When the cells reached 100% confluence the next day, the straight wound was scraped in each cultured well with a 20 µL pipette tip. Then the cells were washed repeatedly with complete DMEM to remove the cellular debris, and the medium was changed to a low serum medium containing 0.05% FBS. The scratch-treated cells were subsequently cultured for an additional indicated time and imaged at 0 h, 12 h, 24 h and 48 h. Quantification of wound closure was accomplished by measuring the distance between the phase contrast images’ anterior edges of the contralateral surfaces using ImageJ software. As for peptide (CY12-RP2) function experiments, images of phase contrast for A375 GFP and A875 GFP cells were captured at 0 h before peptide administration. The cells were then treated with CY12-RP2 (0 μM, 5 μM, 25 μM) for 24 h or 48 h, and then images were acquired again. Handling of the experimental results were carried out as previously described.

[2] = tested on: EMT and apoptosis signaling in A375 cells; assay: Western blot, EMT and apoptosis proteins, A375; format: cell-based; conditions: 0, 5, 25 μM, 48 h
Experimental: Melanoma cells were cultured in a 60 mm dish with a complete medium and various peptide concentrations (0 μM, 5 μM, 25 μM). Protein was extracted after cells were cultured or treated for 48 h using protein lysis buffer, separated using a 10% or 15% Bis–Tris PAGE gel (Epizyme Biomedical Technology, Shanghai, China), and transferred onto a PVDF membrane (Thermo Fisher Scientific) according to standard techniques. The Western blots were imaged using Bio-rad Chemidoc MP and quantified using ImageJ software (NIH).

## CC(C)C[C@H](NC(=O)[C@H](Cc1ccc(O)cc1)NC(=O)[C@@H](N)[C@@H](C)O)C(=O)N[C@@H](CS)C(=O)N[C@H](C(=O)N[C@@H](C)C(=O)N[C@@H](CS)C(=O)N[C@@H](CC(=O)O)C(=O)N[C@@H](Cc1ccc(O)cc1)C(=O)N[C@H](C(=O)N[C@@H](Cc1c[nH]cn1)C(=O)N[C@@H](Cc1c[nH]cn1)C(=O)O)[C@@H](C)O)[C@@H](C)O [CY12-RP2] (H-TYLCTACDYTHH-OH; N-terminus and C-terminus assumed)
[1]
  migration: inhibited migration at the corresponding time both in A375 and A875 cells
[2]
  expression of E-cadherin, Caspase-9, Caspase-3, and Bax: significantly increased
  expression of N-cadherin, vimentin, snail, and BCL2: decreased
